# Earlier results in patent US20080269177A1, “PESTICIDAL COMPOSITIONS” (ECOSMART TECHNOLOGIES, INC., priority 2007, published 2008).
# Experiments:
# [1] = even at the lowest doses, 30 mg/kg/day
# [2] = even treatments as low as 1.2%
smiles,measurement,setting,value
"CCCCOCCOCCOCc1cc2c(cc1CCC)OCO2 [PBO, piperonyl butoxide]",liver weights in chronic toxicity studies,[1],increased liver weights
same,tumour finding in animal studies,[2],hepatocellular carcinomas
